Results as given in patent US10188634B2, “3-(3H-imidazo[4,5-C]pyridin-2-yl)-1 H-pyrazolo[4,3-B]pyridines and therapeutic uses thereof” (Samumed, LLC, priority 2015, dated 2019).

How the values were obtained:
IL-6 in THP-1 cells = test: Inhibition of IL-6 in LPS-stimulated THP-1 human monocyte cells (HTRF); assay type: cell-based; conditions: IL-6 HTRF; for EC50: 500 ng/mL LPS, 22 hours; for inhibition at 10 µM: LPS, read-out: percent inhibition in brackets (given for EC50 >10 μM)
Method in brief: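 IL-6 was quantified by HTRF ratio after LPS (500 ng/mL, 22 h) stimulation of THP-1 monocytes pretreated 2 h with compound, 10-point 1:3 dilutions from 10 μM, 0.1% DMSO. Cells were held in 1% FBS for 24 h beforehand. Values normalised to DMSO; four-parameter EC50, or % inhibition at 10 μM above that.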

[1] = test system: primary human mesenchymal stem cells (hMSCs); test: Induction of chondrogenesis in primary human mesenchymal stem cells (hMSCs), nodule imaging with Rhodamine B / Nile Red; assay type: cell-based; conditions: for Emax: hMSCs chondrogenesis, TGF-β3 (10 ng/mL) as positive control, read-out: Max. Activity as % TGF-β3 activity; for EC50: hMSCs, concentration required to induce 50% levels of chondrogenesis vs TGF-β3 positive control, read-out: Conc (nM) of 50% TGF-β3 activity
Method in brief: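 Passage 3-6 hMSCs cultured 6 days at 37° C in incomplete chondrogenic induction medium with compound (2700-10 nM, 96-well; 5000-2.2 nM, 384-well; 0.03% DMSO), TGF-β3 10 ng/mL as positive control. Fixed nodules stained with Rhodamine B/Nile Red, imaged at 531/625 nm; nodule area normalized to DMSO wells for EC50, maximum activity and dose at maximum.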

EC50 (IL-6 in THP-1 cells)	EC50 [1]	Structure (SMILES)	Emax [1]	inhibition at 10 µM (IL-6 in THP-1 cells)
5790 nM	10 nM	FC1(F)CCN(Cc2cncc(-c3ccc4[nH]nc(-c5nc6c(-c7ccsc7)cncc6[nH]5)c4n3)c2)C1 [Compound 278, 5-(5-((3,3-difluoropyrrolidin-1-yl)methyl)pyridin-3-yl)-3-(7-(thiophen-3-yl)-3H-imidazo[4,5-c]pyridin-2-yl)-1H-pyrazolo[4,3-b]pyridine]	67%	–
2560 nM	30 nM	CC(C)Nc1cncc(-c2ccc3[nH]nc(-c4nc5c(-c6ccoc6)cncc5[nH]4)c3n2)c1 [Compound 292, 5-(3-(7-(Furan-3-yl)-3H-imidazo[4,5-c]pyridin-2-yl)-1H-pyrazolo[4,3-b]pyridin-5-yl)-N-isopropylpyridin-3-amine]	75%	–
31 nM	10 nM	CN(C)c1cncc(-c2ccc3[nH]nc(-c4nc5c(-c6cccs6)cncc5[nH]4)c3n2)c1 [Compound 315, N,N-Dimethyl-5-(3-(7-(thiophen-2-yl)-3H-imidazo[4,5-c]pyridin-2-yl)-1H-pyrazolo[4,3-b]pyridin-5-yl)pyridin-3-amine]	66%	–
125 nM	30 nM	Cc1ccc(-c2cncc3[nH]c(-c4n[nH]c5ccc(-c6cncc(N)c6)nc45)nc23)s1 [Compound 367, 5-(3-(7-(5-Methylthiophen-2-yl)-3H-imidazo[4,5-c]pyridin-2-yl)-1H-pyrazolo[4,3-b]pyridin-5-yl)pyridin-3-amine]	79%	–
2290 nM	300 nM	CC(C)Nc1cncc(-c2ccc3[nH]nc(-c4nc5c(-c6cc(F)cc(NCCN(C)C)c6)cncc5[nH]4)c3n2)c1 [Compound 432, N^1-(3-Fluoro-5-(2-(5-(5-(isopropylamino)pyridin-3-yl)-1H-pyrazolo[4,3-b]pyridin-3-yl)-3H-imidazo[4,5-c]pyridin-7-yl)phenyl)-N^2,N^2-dimethylethane-1,2-diamine]	97%	–
> 10000 nM	–	Cc1ccncc1-c1ccc2[nH]nc(-c3nc4c(-c5cc(F)cc(CNS(C)(=O)=O)c5)cncc4[nH]3)c2n1 [Compound 453, N-(3-Fluoro-5-(2-(5-(4-methylpyridin-3-yl)-1H-pyrazolo[4,3-b]pyridin-3-yl)-3H-imidazo[4,5-c]pyridin-7-yl)benzyl)methanesulfonamide]	35%	23.9%
> 10000 nM	2 nM	CN(C)CCOc1cncc(-c2ccc3[nH]nc(-c4nc5c(-c6cccc(F)c6)cncc5[nH]4)c3n2)c1 [Compound 487, 2-((5-(3-(7-(3-Fluorophenyl)-3H-imidazo[4,5-c]pyridin-2-yl)-1H-pyrazolo[4,3-b]pyridin-5-yl)pyridin-3-yl)oxy)-N,N-dimethylethan-1-amine]	55%	33.4%
> 10000 nM	21 nM	COc1cncc(-c2ccc3[nH]nc(-c4nc5c(-c6cccc(F)c6)cncc5[nH]4)c3n2)c1 [Compound 488, 3-(7-(3-Fluorophenyl)-3H-imidazo[4,5-c]pyridin-2-yl)-5-(5-methoxylpyridin-3-yl)-1H-pyrazolo[4,3-b]pyridine]	56%	43%
> 10000 nM	10 nM	CC(C)CC(=O)Nc1cncc(-c2ccc3[nH]nc(-c4nc5c(-c6ccc(Cl)s6)cncc5[nH]4)c3n2)c1 [Compound 992, N-(5-(3-(7-(5-Chlorothiophen-2-yl)-3H-imidazo[4,5-c]pyridin-2-yl)-1H-pyrazolo[4,3-b]pyridin-5-yl)pyridin-3-yl)-3-methylbutanamide]	61%	29.8%
> 10000 nM	10 nM	CC(C)(C)C(=O)Nc1cncc(-c2ccc3[nH]nc(-c4nc5c(-c6ccc(Cl)s6)cncc5[nH]4)c3n2)c1 [Compound 998, N-(5-(3-(7-(5-Chlorothiophen-2-yl)-3H-imidazo[4,5-c]pyridin-2-yl)-1H-pyrazolo[4,3-b]pyridin-5-yl)pyridin-3-yl)pivalamide]	85%	43%
> 10000 nM	10 nM	Clc1ccc(-c2cncc3[nH]c(-c4n[nH]c5ccc(-c6cncc(CN7CCCC7)c6)nc45)nc23)s1 [Compound 1004, 3-(7-(5-Chlorothiophen-2-yl)-3H-imidazo[4,5-c]pyridin-2-yl)-5-(5-(pyrrolidin-1-ylmethyl)pyridin-3-yl)-1H-pyrazolo[4,3-b]pyridine]	62%	29.8%
> 10000 nM	30 nM	O=C(Nc1cncc(-c2ccc3[nH]nc(-c4nc5c(-c6ccc(Cl)s6)cncc5[nH]4)c3n2)c1)C1CCC1 [Compound 1011, N-(5-(3-(7-(5-Chlorothiophen-2-yl)-3H-imidazo[4,5-c]pyridin-2-yl)-1H-pyrazolo[4,3-b]pyridin-5-yl)pyridin-3-yl)cyclobutanecarboxamide]	68%	32.4%
